From patent publication US8747912B2, “Drug delivery system” (Isis Innovation Limited, priority 2000, dated 2014)

Experiment: Release of the drugs from their intercalation compounds in phosphate buffer solution at 37° C.
Assay type: physicochemical
Settings: stirred at 1000 rpm, intercalate in [LiAl2(OH)6]Cl.H2O, UV of filtrate
Procedure: Release of the drugs from their intercalation compounds was performed in each case by the addition of 0.0250 g-0.100 g of the intercalation compound to 250 mL phosphate buffer solution at 37° C. […] The release in phosphate buffer at pH 7 and at pH 4 was investigated. Aliquots were removed from the flask at regular time intervals, the solution was filtered and the UV spectrum of the filtrate recorded in a […] quartz cuvette. A baseline scan using the neat solution was recorded prior to the collection of the first spectrum of the filtrate.

| Structure (SMILES) | release of the drug from its intercalation compound (phosphate buffer pH 4, 37° C.) | release of the drug from its intercalation compound (phosphate buffer pH 7, 37° C.) |
| --- | --- | --- |
| O=C([O-])Cc1ccccc1Nc1c(Cl)cccc1Cl.[Na+] [Diclofenac, sodium (2-(2,6-dichloroanilino)phenyl)acetate] | rapid | slower and more controlled |
| COc1ccc2cc([C@H](C)C(=O)O)ccc2c1 [Naproxen, (+)-2-(6-methoxy-2-naphthyl)propionic acid] | rapid | slower and more controlled |
| O=C(O)Cc1ccc(-c2ccccc2)cc1 [4-biphenylacetic acid] | rapid | slower and more controlled |
